# From a melting point compilation (Tetko et al.; mined from patent text by program, amines drawn as free bases though some values may be those of a salt)
row,melting point [°C],SMILES
1,123 to 125,CC(=O)OCCC1CCC2C3CCC4CCCCC4(C)C3CCC12C (centres undefined)
2,163,CNC(=O)C(NC(=O)c1ccc(F)cc1C(F)(F)F)C(O)CO (centres undefined)
3,197 to 199,O=C(Cc1c(Br)cnc2c(NC(=O)c3c(Cl)cccc3Cl)cccc12)NCc1ccccn1
4,58 to 59,CCOCc1cc2cc(Cl)ccc2oc1=Nc1ccccc1
5,144 to 146,C=C(C)C(=O)Oc1c(Cc2cc(C)cc(C(C)(C)C)c2O)cc(C)cc1C(C)(C)C
6,158 to 160,N#Cc1sc2cc(N)ccc2c1Cl
7,210,COc1ccc2nc(SCc3nccc(N4CCOCC4)c3Cl)[nH]c2n1
8,266 to 268,Oc1ccc(-c2noc3ccc(O)cc23)cc1
9,133 to 135,CC(=O)Cc1ccc(CC2SC(=O)NC2=O)cc1 (centres undefined)
10,127 to 129,Cc1c(N2CCC(C(N)c3ccccn3)C2)c(F)c(N)c2c(=O)c(C(=O)O)cn(C3CC3F)c12 (centres undefined)
11,110 to 112,NCC1(C(=O)O)CC(c2ccccc2)Cc2c(O)cccc21 (centres undefined)
12,163 to 164,O=C(O)C[C@@H](Oc1c(Br)cc(-c2c3ccccc3c(Br)c3sc4ccccc4c23)cc1Br)C(=O)O
13,251 to 254,CCCNc1cccc(-c2ccc(C(=O)O)c(=O)[nH]2)c1
14,241,COc1cc(C(=O)c2nc(C(N)=O)c3ccccn23)ccc1N
15,172 to 173,NNc1nc(-c2ccccc2)c2cc(Cl)ccc2n1
16,94 to 96,COc1nc2cc(Cl)cc(C)c2nc1OC
17,140 to 142,CC1(C)SC(c2ccc3c(c2)CCC3)NC1C(=O)O (centres undefined)
18,220 to 223,O=C1Cc2cc(O)cc(O)c2C2CCCCC12 (centres undefined)
19,81 to 83,CC#CCOc1cc(C=O)ccc1OC
20,143 to 147,CCCCOc1ccc(Cc2cnc(N)nc2N)cc1OC
21,164 to 166,O=C(O)CCc1ccc(CNC(=O)OCC2c3ccccc3-c3ccccc32)cc1
22,172 to 173,O=C(CCc1cnoc1-c1ccccc1)Nc1nc(-c2ccc(Cl)cc2)cs1
23,223 to 224,NC1C(=O)Nc2ccccc2SC1Cc1ccccc1 (centres undefined)
24,75 to 78,CC(=O)OCC1OC(c2cnc(Cl)nc2Cl)C(OC(C)=O)C1OC(C)=O (centres undefined)
25,90 to 91.5,O=C(c1cccnc1)c1cccs1

row,melting point [°C],SMILES
1,116 to 117,CCC1(CCCCCl)C(=O)Nc2ccc(Cl)cc21 (centres undefined)
2,120 to 123,CCOC(=O)c1cc2c(C(=O)CN(Cc3ccccc3)C(C)CC(=O)OC)ccc(OCc3ccccc3)c2[nH]1 (centres undefined)
3,146 to 147,CCCn1nc(-c2sc(C(=O)NC3CC3)nc2-c2ccccc2)ccc1=O
4,150 to 154,CC(=CC#N)c1cc(-c2ccc(S(C)(=O)=O)cc2)c(-c2ccc(F)cc2)s1
5,379 to 382,CC12CCC(=O)NC1=CCC1C2CCC2(C)C(=NN)CCC12 (centres undefined)
6,248,CC1(C)Oc2ccc(C#N)cc2[C@@H](N2CC(OCc3ccccc3)=CC2=O)[C@@H]1O (relative stereo)
7,278 to 280,CC(=O)Nc1cc(F)cc2c1OCCC21SC(=O)NC1=O (centres undefined)
8,> 315,CCc1cc2[nH]c(=O)c(=O)[nH]c2cc1Cl
9,133,COC(=O)C(Cc1cc(OC)cc(C(F)(F)F)c1)NC(=O)c1ccccc1 (centres undefined)
10,89 to 92,Cc1ccc(S(=O)(=O)OCC2Cc3c(C(F)(F)F)ccc(Cl)c3O2)cc1 (centres undefined)
11,110 to 112,COc1ccc2c(c1)NCc1ccccc1O2
12,119 to 121,COC(=O)c1cc(-c2ccc(OC)c(F)c2)nn(CC(C)C)c1=O
13,194 to 196,O=C1c2c(-c3ccccc3)c3ccccc3c(=O)n2CCN1Cc1cc(C(F)(F)F)cc(C(F)(F)F)c1
14,> 250,O=C1Nc2c(F)cccc2C12COc1cc3c(cc12)CCO3 (centres undefined)
15,135 to 138,CCCc1nc(CO)c(C(=O)OCC)n1Cc1ccc(-c2ccccc2-c2nnnn2C(c2ccccc2)(c2ccccc2)c2ccccc2)cc1
16,152 to 153,O=C1NC(=O)c2ccc(-c3ccc(F)cc3)cc2/C1=C/Nc1ccc(CN2CCCC2)cc1
17,111 to 113,COc1ccc(F)c2c1C[C@@H](NO)CO2
18,83 to 84,COc1ccc(Br)c(COc2cccc3cc(OC)ccc23)c1
19,129 to 130,O=C1C[C@@H]2[C@@H](/C=C/C(=O)[C@@H]3OCc4ccccc4O3)[C@H](OC(=O)c3ccccc3)C[C@@H]2O1
20,66.5 to 67.5,CC(=O)c1ccnnc1
21,155,CN1CCCc2cc(OC(=O)Nc3ccc(Br)cc3)ccc21
22,132 to 133,O=C(O)Cc1ccc(-n2cc(Cl)cn2)c(Cl)c1
23,237 to 243,COc1cccc(C(F)(F)F)c1NS(=O)(=O)c1nc2nc(O)cc(O)n2n1
24,141,CCn1cc(C(=O)Nc2ccc(C(C)C)cc2)cn1
25,145 to 147,O=C(O)c1ccc(Cc2ccccc2)cn1

row,melting point [°C],SMILES
1,66 to 68,CCN(CC)CCOc1ccc2cc3ccc(OCCN(CC)CC)c(Br)c3nc2c1Br
2,162 to 164,CNC1=NN(C(=O)C(C)(C)C)C(C)(C)S1
3,103 to 105,CSc1coc2ccccc2c1=O
4,160,Cc1nc2ccc(Cl)nn2c1C(=O)c1ccc(Cl)cc1F
5,126 to 130,N#CCCNC(=O)c1cccc(-c2ccc3c(c2)C(NCc2ccc(Cl)cc2Cl)CC3)c1 (centres undefined)
6,207 to 210,COc1cc(/C=C/C(=O)Nc2ccccc2C(=O)O)ccc1OCC1CCCCC1
7,226 to 228,O=C(O)C1CC1c1cc(=O)c2cc(-c3ccccc3)ccc2o1 (centres undefined)
8,142 to 144,CC(=O)Nc1ccc(C(C)=O)c2c1OCCO2
9,168 to 170,CCOC(=O)c1ccc(-c2coc(-c3ccc(C(F)(F)F)cc3)n2)cc1
10,109 to 110,CC(C)(C)OC(=O)c1c(Cl)cc(N2C(=O)N3CCCC3(Cc3ccc(Br)cc3)C2=O)cc1Cl (centres undefined)
11,> 270,O=c1[nH]c2cc([N+](=O)[O-])c(S(=O)(=O)c3cccc4cnccc34)cc2o1
12,74 to 75,COC(=O)CCc1oc(C)nc1-c1ccc(Cl)cc1
13,86 to 90,O=S(=O)(Nc1cccc2c(Cl)c[nH]c12)c1ccc(CCCn2ccnc2)cc1
14,48,CCCCc1c(Cc2ccc(-c3ccccc3)c(-c3nnn[nH]3)c2)c(COC)nn1CC(F)(F)F
15,75 to 78,N#CC1(N)CCc2ccc3ccccc3c2C1 (centres undefined)
16,197 to 199,COc1ccc(C(=O)Nc2ccccc2)cc1NS(=O)(=O)c1cccc(Cl)c1
17,151 to 156,Cc1cc(N2CCCC2)c([N+](=O)[O-])c(Cl)n1
18,189 to 191,COCc1c(-c2ccccc2)ncc2[nH]c3ccc(OCc4ccccc4)cc3c12
19,156,CSc1ccc(-c2nn(Cc3ccc(F)cc3)c(=O)cc2-c2ccc(F)cc2)cc1
20,89 to 91,CC(=O)Nc1ccccc1OCCO
21,206 to 208,Oc1ccc(C2COc3cc(O)cc(O)c3C2)cc1 (centres undefined)
22,128 to 130,CCCC(C)(C)C(=O)Oc1ccc(C(=O)CNC(C)(C)C)cc1O
23,198 to 202,O=C(O)Cc1c(C(=O)O)c2cc(Oc3ccc(Cl)cc3)ccc2n1-c1ccc(OC(F)(F)F)cc1

row,SMILES,melting point [°C]
1,CN(C)C(=O)Oc1ccc(CCl)cc1,68
